# Test results reported in patent US12663426B2, “Method and composition for measurement of nitric oxide” (The University of Chicago, priority 2019, dated 2026).
# System: S-nitrosylation at the Golgi
# Assay: Anti-S-nitrosocysteine immunostaining of T-47D cells
# Type: cell-based
# Settings: not given
# Method: (§1) Immunofluorescence staining. Cells were cultured on a glass bottom 3.5 cm imaging dish to reach 60% confluency. […] Treated cells were then washed three times with 1× PBS (pH 7.4) and fixed using, 4% paraformaldehyde at room temperature (RT, 15 min). Subsequently, cells were permeabilized using 0.25% triton X-100 followed by blocking using 3% BSA in 1× PBS. Cells were then incubated with indicated primary antibodies—mouse monoclonal anti-eNOS antibody (SantaCruz Cat #sc-376751), Polyclonal Anti-S-nitrosocysteine antibody (Abeam Cat #ab94930 or Abeam Cat #ab50185), Rabbit polyclonal Anti-Giantin antibody (Abeam Cat #ab24586) or Mouse monoclonal Anti-GM130 antibody (BD Biosciences Cat #610822) in blocking buffer (3% BSA in 1× 4 PBS) for 1 hour at RT. Cells were then washed for 5 min with 1× PBS (3×). Respective secondary antibodies conjugated with either Alexafluor 488 or Alexafluor 647 were added to the cells and incubated for 1 hr at RT. Cells were washed again to remove excess secondary antibody using 1× PBS for 5 min (3×). Hoechst 33342 (5 μM) was added 10 min prior to imaging to stain nuclear DNA. Cells were then imaged on a Leica SP8 laser scanning confocal microscope using excitation wavelengths 405 nm (Hoechst), 488 nm (AlexaFluor 488) and 647 nm (AlexaFluor 647). Images were processed using Fiji and maximum z-projection of 2-3 z-planes are used in representative images.
# In order to address the significance of the […] population of NOS3 at the TGN, T-47D cells were immunostained using an antibody specific to S-nitrosocysteine.
# Similar observations were made in MCF-7 cells upon NO depletion (FIG. 23). These studies reveal that the Golgi is a cellular hot-spot for 5-nitrosylation of proteins by NOS3, where it is essential for the maintenance of Golgi architecture in breast cancer cells. […] In addition to Golgi fragmentation, NO scavenging also hampered cell growth by inducing cell sensescence (FIG. 24).
row,Compound,S-nitrosylation at the Golgi
1,"COC(=O)[C@@H](N)CCCNC(=N)N[N+](=O)[O-] [L-NAME, L-N^G-Nitroarginine methyl ester]",dramatically reduced
2,"CC1(C)N([O])C(c2ccccc2)=[N+]([O-])C1(C)C [PTIO, 2-phenyl-4,4,5,5-tetramethylimidazoline-1-oxyl 3-oxide]",greatly diminished

# System: T-47D cells
# Assay: Golgi fragmentation (Giantin/GM130 immunofluorescence)
# Type: cell-based
# Settings: not given
# Method: as §1
# Golgi fragmentation was quantified with immunofluorescence images of Golgi structural protein Giantin. Merge images of Hoechst and Giantin allowed identification of cell numbers and enumeration of Golgi fragments per cell (≤3 Golgi fragments per cell was considered intact Golgi) (Lee, J. E. et al. Dependence of Golgi apparatus integrity on nitric oxide in vascular cells: implications in pulmonary arterial hypertension. Am. J. Physiol. Heart Circ. Physiol. 300, H1141-58 (2011)). […]
# Small molecule inhibitors were then screened to identify the molecular pathway by which NOS3 inhibition induces Golgi fragmentation. This is based on the rationale that inhibiting a protein on this pathway should also block methylene blue-induced Golgi fragmentation. […] A range of small molecule inhibitors against kinases that have previously ascribed roles in Golgi fragmentation were then used. DNA-PK with NU7441 was ruled out (Farber-Katz, S. E. et al. DNA damage triggers Golgi dispersal via DNA-PK and GOLPH3. Cell 156, 413-427 (2014)). Compounds containing an indirubin core have broad specificity for Cyclin dependent kinases (CDKs) and Src kinases. […] CDK1, CDK2 and CDK5 were ruled out, using (R)-Roscovitine (Rosco).
Compound,effect on methylene blue (MB)-induced Golgi fragmentation,Golgi fragmentation by treatment alone,reduction of MB-induced Golgi fragmentation [%]
CC[C@H](CO)Nc1nc(NCc2ccccc2)c2ncn(C(C)C)c2n1 [(R)-Roscovitine],ruled out,–,–
"COC(=O)[C@@H](N)CCCNC(=N)N[N+](=O)[O-] [L-NAME, L-N^G-Nitroarginine methyl ester]",–,underwent fragmentation,–
C/C1=C/C(=O)O[C@@H]2C[C@@H](CC[C@H](C)/C=C\CC1)O[C@@](O)([C@@H]1CSC(=O)N1)C2 [Latrunculin B],completely blocked,–,–
CN(C)c1ccc2nc3ccc(=[N+](C)C)cc-3sc2c1 [Methylene Blue],–,fragmented morphology,–
O=c1cc(N2CCOCC2)oc2c(-c3cccc4c3sc3ccccc34)cccc12 [NU7441],ruled out,–,–
"CC1(C)N([O])C(c2ccccc2)=[N+]([O-])C1(C)C [PTIO, 2-phenyl-4,4,5,5-tetramethylimidazoline-1-oxyl 3-oxide]",–,fragmented morphology,–
CN(C)S(=O)(=O)c1ccc2c(c1)/C(=C/c1cc3c([nH]1)CCCC3)C(=O)N2 [SU6656],–,–,~50
CC1(C)CC(O)CC(C)(C)N1[O] [TEMPOL],–,none of these treatments fragmented the Golgi,–
C[C@@H](N)[C@H]1CC[C@H](C(=O)Nc2ccncc2)CC1 [Y-27632],not mediated by apoptosis,–,–
O=C1Nc2ccccc2/C1=C1/Nc2ccccc2/C1=N\O [indirubin-3′-monoxime],completely blocked,–,–
O=C1Nc2ccccc2/C1=C1/Nc2ccccc2/C1=N\OCC(O)CO (stereo not drawn) [indirubin-e804],completely blocked,–,–
Hemoglobin,–,fragmented morphology,–

# Target: T1, murine TLR-9 (Mus musculus, UniProt Q9EQU3)
# T1 construct: endogenous in cells; host or cells: primary microglia from C57BL/6 mice
# T1 sequence (Q9EQU3 26-1032): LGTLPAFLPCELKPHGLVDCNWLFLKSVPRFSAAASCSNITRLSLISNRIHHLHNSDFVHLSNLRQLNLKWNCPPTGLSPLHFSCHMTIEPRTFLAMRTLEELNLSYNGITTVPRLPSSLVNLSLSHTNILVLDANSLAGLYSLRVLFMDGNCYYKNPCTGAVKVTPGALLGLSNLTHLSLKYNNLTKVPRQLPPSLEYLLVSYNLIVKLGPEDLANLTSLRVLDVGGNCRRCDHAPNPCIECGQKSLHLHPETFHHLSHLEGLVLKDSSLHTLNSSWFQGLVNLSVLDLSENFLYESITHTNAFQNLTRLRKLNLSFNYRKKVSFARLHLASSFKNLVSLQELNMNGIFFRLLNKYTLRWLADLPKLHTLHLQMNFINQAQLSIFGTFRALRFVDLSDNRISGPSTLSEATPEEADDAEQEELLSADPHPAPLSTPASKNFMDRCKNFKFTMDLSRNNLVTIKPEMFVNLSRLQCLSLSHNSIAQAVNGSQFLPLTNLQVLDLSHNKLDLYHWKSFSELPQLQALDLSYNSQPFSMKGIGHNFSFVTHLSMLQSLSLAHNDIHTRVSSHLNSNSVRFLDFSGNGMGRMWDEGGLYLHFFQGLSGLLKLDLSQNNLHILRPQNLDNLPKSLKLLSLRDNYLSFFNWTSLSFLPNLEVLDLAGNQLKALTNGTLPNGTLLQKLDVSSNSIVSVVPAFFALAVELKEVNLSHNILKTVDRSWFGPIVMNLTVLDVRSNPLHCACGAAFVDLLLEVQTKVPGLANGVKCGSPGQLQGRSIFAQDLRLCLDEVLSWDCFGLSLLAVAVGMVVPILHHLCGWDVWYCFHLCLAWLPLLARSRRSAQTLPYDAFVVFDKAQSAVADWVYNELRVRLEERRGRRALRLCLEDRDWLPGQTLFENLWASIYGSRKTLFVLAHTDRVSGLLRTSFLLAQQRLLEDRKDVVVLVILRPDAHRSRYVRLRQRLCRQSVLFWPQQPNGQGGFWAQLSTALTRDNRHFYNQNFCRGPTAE
# Assay: Endosomal NO in primary mouse microglia with NOckout^mCpG
# Type: cell-based
# Settings: primary microglial cells, NOckout^mCpG 500 nM 120 min, without or with 200 nM BAF
# Description: Image analysis: A MATLAB based program called Findosome was used to calculate the (G/R) values of individual endosomes from the acquired images. Maximum Z-projected images created using Fiji (NIH) were fed to Findosome to pick endosomal compartments as ROI corresponding to individual endosomes based on the A647 channel intensity. For each ROI, the program calculates fluorescence intensities both in the normalizing channel (A647, R) as well as in the DAR (G) channel. The results were exported as an excel file. From the results, (G/R) value for individual endosomes can be calculated. Phagosomal (G/R) values from the zebrafish microglia are calculated using Fiji software. Images were imported to Fiji and maximum Z-projected images were created. ROI were manually drawn around clearly identifiable phagosomes using the normalizing channel A647 intensity. Fluorescence intensities in A647 and DAR channels were calculated. G/R values are either represented as heat map images using Fiji or as bar graph using Origin software. Intracellular measurements of (G/R) values was performed in GFP colocalized microglia. For (G/R) ratio quantification experiments, only those vesicles that are present in both green (G) and red (R) channels were considered. […]
row,Compound,endosomes with G/R value≥0.45 [%]
1,CO/C1=C\C(C)=C\[C@@H](C)[C@@H](O)[C@@H](C)C/C(C)=C/C=C/[C@H](OC)[C@@H]([C@@H](C)[C@@H](O)[C@H](C)[C@@]2(O)C[C@@H](O)[C@H](C)[C@@H](C(C)C)O2)OC1=O [BAF],50

# Target: T2, NOS3 (Homo sapiens, UniProt P29474)
# T2 construct: endogenous, basal NOS3 activity was estimated at each of these sub-cellular locations in T-47D cells; endogenous in cells; host or cells: T-47D cells
# Assay: Steady state NOS3 activity imaging at plasma membrane and TGN with NOckout probes
# Type: cell-based
# Settings: T-47D cells
# Method: Image acquisition. T-47D cells were maintained as mentioned above in the cell culture section. Cells were washed twice with Hank's balanced salt solution (HBSS) before incubating them with 500 nM NOckout^TGN for 30 min or 500 nM NOckout^PM for 10 min at 37° C. followed by 3 washes with HBSS solution to remove any unloaded sensors. For steady state imaging (FIG. 1), cells were treated with indicated agonists or antagonists for 1 hr in complete RPMI-1640 medium. Care was taken not to exceed the final concentration of DMSO>1% at any time of the experiment. Additionally, 1% DMSO was used as a negative control in untreated (Basal) cells. […] The cells are then washed and imaged (FIG. 1f).
# For simultaneous imaging cells were treated with 500 nM NOckout^TGN for 30 min where last 10 min cells were co-incubated with 500 nM NOckout^PM. In order to achieve lowest signal (PTIO, FIG. 1e-f) or to achieve bleaching profile (PTIO, FIG. 3e) cells were pre-treated with 500 μM PTIO for 15 minutes. Images were captured on a Laser scanning confocal Leica SP8 microscope using 63×, 1.4UV NA objective. Desired excitation and emission wavelengths was achieved using white light laser along with notch filters and acousto-optical tunable filters. A488, DAR and A647 were imaged using the following settings—Alexa488 (λex=488 nm, λem=500 nm to 540 nm), DAR (λex=554 nm, λem=565 nm to 610 nm) and Alexa647 (λex=647 nm, λem=665 nm to 710 nm).
# Image analysis was performed using Fiji (Schindelin, J. et al. Fiji: an open-source platform for biological-image analysis. Nat Methods 9, 676-682 (2012)). Auto-fluorescence was subtracted from images for ratiometric analysis. For representation, images were further processed by smooth and despeckle functions. In order to present G/B or G/R images, a mask for each image was constructed using Otsu thresholding method, and mask-multiplied images were used for division. The ROI plugin in Fiji was used to select either TGN (Alexa647 channel) or PM (Alexa488 channel) and these ROIs were recalled in DAR channel to measure intensity in all three channels.
# Next, endogenous, basal NOS3 activity was estimated at each of these sub-cellular locations in T-47D cells without explicitly activating NOS3. To do this, the ratiometric NOckout^PM response, i.e. the G/B ratio, was first measured under conditions where cells were depleted of NO using the NO scavenger 2-phenyl-4,4,5,5-tetramethylimidazoline-1-oxyl 3-oxide (PTIO, 300 μM) (Goldstein, S., Russo, A. & Samuni, A. Reactions of PTIO and carboxy-PTIO with *NO, *NO2, and O2−*. J Biol. Chem. 278, 50949-50955 (2003)). […] These two extreme cases provide the minimum and maximum G/B signals afforded by NOckout^PM in the cell (FIG. 1e-f). The G/B values under any subsequent condition are normalized to the maximum G/B signal. […]
row,Compound,G/B and G/R values of NOckout probes (NOS3 activity)
1,Nc1ncnc2c1ncn2[C@@H]1O[C@H](COP(=O)(O)OP(=O)(O)OP(=O)(O)O)[C@@H](O)[C@H]1O [ATP],significantly higher G/B and G/R ratios
2,"C[C@]12CC[C@@H]3c4ccc(O)cc4CC[C@H]3[C@@H]1CC[C@@H]2O [E2, 17 β-Estradiol]",selectively activated NOS3 only at the plasma membrane
3,"COC(=O)[C@@H](N)CCCNC(=N)N[N+](=O)[O-] [L-NAME, L-N^G-Nitroarginine methyl ester]",reflected those of PTIO-treated cells
